Source: article PMC8201324, “Pyrazoles and Pyrazolines as Anti-Inflammatory Agents” (Molecules, 2021)
Where two headings read alike, the source gives them in different places. Marks after values point to notes of the source that are not given here.

Columns and labels:
soybean lipoxygenase [1] = biological target: T1, soybean lipoxygenase (Glycine max, UniProt P08170); experiment: Soybean lipoxygenase inhibition study; format: biochemical; conditions: sodium linoleate 0.1 mM; for inhibition at 100 µM / LOX % Inhibition at 100 µM: compound 100 µM; for inhibition at 100 µM: read-out: LOX % Inhibition at 100 µM
T1 construct: purchased Sigma Chemical, Co
T1 sequence (P08170 1-839): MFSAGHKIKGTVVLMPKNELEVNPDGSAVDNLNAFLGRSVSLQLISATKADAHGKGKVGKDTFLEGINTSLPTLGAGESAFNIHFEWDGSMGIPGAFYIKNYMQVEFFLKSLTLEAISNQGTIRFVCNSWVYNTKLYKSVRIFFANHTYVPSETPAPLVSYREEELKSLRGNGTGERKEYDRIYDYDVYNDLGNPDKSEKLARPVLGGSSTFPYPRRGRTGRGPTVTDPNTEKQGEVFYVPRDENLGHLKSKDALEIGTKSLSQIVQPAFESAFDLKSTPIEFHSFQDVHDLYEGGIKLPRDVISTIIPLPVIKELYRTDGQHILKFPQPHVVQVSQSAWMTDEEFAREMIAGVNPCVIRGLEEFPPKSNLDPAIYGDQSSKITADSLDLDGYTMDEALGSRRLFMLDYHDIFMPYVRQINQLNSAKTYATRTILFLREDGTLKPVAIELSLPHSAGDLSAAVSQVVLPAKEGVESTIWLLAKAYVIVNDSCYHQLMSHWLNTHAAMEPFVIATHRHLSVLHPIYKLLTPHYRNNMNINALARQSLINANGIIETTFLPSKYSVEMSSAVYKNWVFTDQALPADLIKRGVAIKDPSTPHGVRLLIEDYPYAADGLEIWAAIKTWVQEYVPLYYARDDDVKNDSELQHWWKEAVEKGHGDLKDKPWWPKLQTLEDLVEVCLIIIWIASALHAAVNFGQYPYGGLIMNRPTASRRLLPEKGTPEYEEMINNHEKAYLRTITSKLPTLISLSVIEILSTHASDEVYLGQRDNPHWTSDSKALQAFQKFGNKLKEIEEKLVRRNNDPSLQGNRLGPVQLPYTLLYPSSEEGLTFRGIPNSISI
Description: Lipoxygenase (LOX) is the key enzyme implicated in membrane lipid peroxidation by forming hydroperoxides, thus it is considered a target for inflammatory diseases. […] For the in vitro study, soybean lipoxygenase was used, based on the homology to mammalian lipoxygenase. […] A stock solution (1% DMSO in the appropriate buffer with the tested compound diluted under sonication) was prepared for the in vitro assays from which several dilutions were made with the appropriate buffer. […] The stock solutions of the compounds were incubated with sodium linoleate (0.1 mM) and 0.2 mL of soybean lipoxygenase solution (1/9 × 10^-4 w/v in saline) at room temperature. In vitro test was performed as previously published.

[2] = Reducing activity of the stable radical DPPH; format: biochemical
Description: The novel derivatives were studied for their interaction with the stable 2,2-diphenyl-1-picrylhydrazyl free radical (DPPH) at concentrations 50 µM, 100 µM, 200 µM and after 20 and 60 min (Table 3). This assay is based on the reduction of the DPPH by transferring an electron from the antioxidant. […] However, it seems that the interaction is dependent on the concentration and on the reaction time. From this point of view, it can be concluded that the acetyl pyrazolyl derivatives 2c and 2f seem to present the highest scavenging activities. An increase in concentration favors the activity. […] As for compounds 2a, 2b, 2c and 2f, activity seems to be time dependent at 200 µM. […] The presence of a chlorine group in 2e pyrazoline leads to an activity increase (compared to 2d) in concentration 200 µM. The acetyl derivative 2f presents better activity than 2b at 200 µM.
(§1) A stock solution (1% DMSO in the appropriate buffer with the tested compound diluted under sonication) was prepared for the in vitro assays from which several dilutions were made with the appropriate buffer. The in vitro experiments were performed at least in triplicate, and the standard deviation of absorbance was less than 10% of the mean.
A stock solution (10 mM) of the novel derivatives in DMSO was prepared and an equal volume of it was added to a solution of DPPH in absolute ethanol to reach final concentrations 50, 100 µM and 200 µM. The absorbance was recorded at 517 nm, after 20 and 60 min at room temperature (Table 3).

[3] = ABTS+ decolorization assay for antioxidant activity; format: biochemical
From the text: Pyrazolines 2d and 2e which are the most lipophilic compounds, showing antioxidant activity using the ABTS radical cation (ABTS^•+) generated through potassium persulfate by oxidation with no participation of an intermediary radical. This reduction is completed by adding electron-donating antioxidants. It seems that lipophilicity influences the activity, since both present high lipophilicity values.
as §1
The ABTS radical cation (ABTS^+•) was generated by mixing ABTS stock solution in water (7 mM) with potassium persulfate (2.45 mM) and left in the dark at room temperature for 12–16 h before use. The results are recorded immediately after the mixing solutions at 734 nm. The results were compared to the appropriate standard inhibitor Trolox (Table 4).

soybean lipoxygenase [4] = biological target: T1, soybean lipoxygenase; experiment: Soybean lipoxygenase inhibition study; format: biochemical
[5] = test system: acetic acid-induced writhing; experiment: Anti-nociception writhing test (acetic acid); format: in vivo, Fisher 344 rats; conditions: 0.0057 mmol/kg body weight i.p., 0.6% acetic acid after 30 min
From the text: The acetic acid-induced writhing test is a quick, simple and reproducible method, despite the fact that it lacks specialization. […] The animals (Fisher 344 rats), were housed under standard conditions, and received a diet of commercial food pellets and water ad libitum during the maintenance, but were entirely fasted during the experiment period. Both sexes were used, while pregnant females were excluded. Each group was composed of 6–15 animals. Our studies were in accordance with recognized guidelines on animal experimentation (guidelines for the care and use of laboratory animals published by the Greek Government 160/1991, based on EU regulations 86/609). Rats were kept in the Centre of the School of Veterinary Medicine (EL54 BIO42), Aristotle University of Thessaloniki, which is registered by the official state veterinary authorities (presidential degree 56/2013, in harmony with the European Directive 2010/63/EEC). The experimental protocols were approved by the Animal Ethics Committee of the Prefecture of Central Macedonia. For the study of the analgesic activity of the tested compounds, pain is provoked with acetic acid. Animals were divided in three five-membered groups, according to our reported method. After treatment with the tested compounds (0.0057 mmol/kg body weight; intraperitoneally) in the first group, the second group was used as a positive control (aspirin; 0.0057 mmol/kg body weight i.p.) and the third group served as the control in which saline was administered (negative control). After 30 min, 0.6% acetic acid (1 mL/kg body weight) was injected i.p. The number of writhes was recorded for each animal every 5 min during a subsequent 30 min period (Table 6).

Compound	inhibition at 100 µM (soybean lipoxygenase [1])	RA% 50 µM 20 min [2]	RA% 50 µM 60 min [2]	RA% 100 µM 20 min [2]	RA% 100 µM 60 min [2]	RA% 200 µM 20 min [2]	RA% 200 µM 60 min [2]	ABTS^+ % 100 µM (decolorization activity) [3]	IC50 (soybean lipoxygenase [1]; soybean lipoxygenase, read-out: LOX IC50)	inhibition at 100 µM (soybean lipoxygenase [4]; compound 100 µM, linoleic acid sodium salt 50 µM, read-out: LOX % Inhibition 100 µM, LLA 50 µM)	type of LOX inhibition (soybean lipoxygenase [4]; varying sodium linoleate concentration, enzyme and compound kept stable)	Writhing Inhibition (%) [5]	LOX % Inhibition at 100 µM (soybean lipoxygenase [1])
c1ccc(C2=NNC(c3cccc4ccccc34)C2)cc1 (stereo not drawn) [Compound 2a, 5-(naphthalen-1-yl)-3-phenyl-4,5-dihydro-1H-pyrazole]	35%	15.0%	20.0%	22.9%	32.0%	37.2%	49.3%	no					
CC(=O)n1nc(-c2ccccc2)cc1-c1ccc2[nH]ccc2c1 [Compound 2f, 1-(5-(1H-indol-5-yl)-3-phenyl-1H-pyrazol-1-yl)ethan-1-one]	3%	21.0%	24.7%	34.7%	38.8%	50.1%	59.5%	no					
CC(=O)n1nc(-c2ccc(Cl)cc2)cc1-c1cccc2ccccc12 [Compound 2g, 1-(3-(4-chlorophenyl)-5-(naphthalen-1-yl)-1H-pyrazol-1-yl)ethan-1-one]	60%	9.0%	12.7%	11.2%	13.6%	22.5%	27.7%	no	80 µM	89.6%	competitive inhibition		
Clc1ccc(C2=NNC(c3ccc4[nH]ccc4c3)C2)cc1 (stereo not drawn) [Compound 2b, 5-(3-(4-chlorophenyl)-4,5-dihydro-1H-pyrazol-5-yl)-1H-indole]	17%	19.3%	25.0%	26.1%	33.6%	34.9%	44.4%	no					
Brc1ccc(COc2ccc(C3CC(c4ccccc4)=NN3)cc2)cc1 (stereo not drawn) [Compound 2d, 5-(4-((4-bromobenzyl)oxy)phenyl)-3-phenyl-4,5-dihydro-1H-pyrazole]	13%	6.3%	9.5%	19.4%	37.4%	9.4%	14.9%	15%				54.2 * %	
5-(4-((4-bromobenzyl)oxy)phenyl)-3-(4-chlorophenyl)-4,5-dihydro-1H-pyrazole [Compound 2e]		9.5%	13.0%	14.8%	17.8%	25.6%	30.1%	30%				66.1 * %	16%
1-(5-(4-((4-bromobenzyl)oxy)phenyl)-3-(thiophen-2-yl)-1H-pyrazol-1-yl)ethan-1-one [Compound 2c]		17.1%	22.4%	41.9%	44.0%	49.4%	59.2%	no					42%
CC(=O)n1nc(-c2ccccc2)cc1-c1cccc(Oc2ccccc2)c1 [Compound 2h, 1-(5-(3-phenoxyphenyl)-3-phenyl-1H-pyrazol-1-yl)ethan-1-one]	26%	6.7%	9.5%	7.8%	9.6%	17.2%	20.9%	no					
